Experimental data reported in US12590062B2, “PD-1/PD-L1 inhibitors” (Gilead Sciences, Inc., priority 2017, dated 2026).

What was measured:
PD-1/PD-L1 interaction = biological target: T1, PD-1/PD-L1 interaction (Homo sapiens, UniProt Q9NZQ7); assay: PD-1/PD-L1 NFAT reporter co-culture assay; type: cell-based; settings: Jurkat PD-1 NFAT-luciferase cells co-cultured with aAPC-PD-L1 CHO cells, 6 hrs at 37° C.; read-out: EC50 NFAT Luciferase
T1 construct: expressed in transfected cells; host or cells: CHO cells (aAPC-PD-L1) co-cultured with Jurkat cells overexpressing PD-1 and an NFAT-luciferase reporter
Method in brief: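 Jurkat cells overexpressing PD-1 with NFAT-driven luciferase were mixed with compound in RPMI 1640/2% FBS and seeded onto overnight-plated CHO aAPC-PD-L1 cells expressing surface anti-CD3 and PD-L1. Co-culture ran 6 h at 37 °C; luminescence read with ONE-Glo; EC50 from four-parameter fit.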

[1] = biological target: T2, interaction between the recombinant extracellular domain (ECD) of PD-1 and native cell-bound PD-L1 (Homo sapiens, UniProt Q9NZQ7); assay: CHO/PD-L1 cell capture assay; type: cell-based; settings: CHO cells overexpressing PD-L1, pre-incubated 1 hr with compound, captured on biotinylated Fc-PD-1 coated plates, 75 min at room temperature
T2 construct: expressed in transfected cells
Method in brief: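 EC50 values came from four-parameter fits of counts of Draq5-stained CHO-PD-L1 cells retained on plate-bound biotinylated Fc-PD-1 ECD, enumerated by high-content imaging. Cells in PBS pH 7.4 with EDTA and 2% BSA had 1 hr compound pre-incubation, then 75 min capture at room temperature.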

PD-1/PD-L1 = PD-1/PD-L1 (Homo sapiens, UniProt Q9NZQ7); assay: PD-1/PD-L1 biochemical protein-protein interaction assay (ALPHA); type: binding; settings: 0.3 nM His tagged PD-L1, 2.5 nM biotinylated Fc-PD-1, 60 minutes at 25° C., read-out: IC50 PD-L1-PD-1 Alpha IC50-mono PD-L1-fcP-D1
Method in brief: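 Bead proximity read-out: compound-driven loss of ALPHA signal between anti-His acceptor and streptavidin donor beads (20 μg/mL acceptor). Proteins: 0.3 nM His-PD-L1, 2.5 nM biotin-Fc-PD-1, final. 60 min, 25° C, Hepes pH 7.4 buffer. IC50 via four-parameter dose-response fit.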

Sequence of PD-1/PD-L1 (Q9NZQ7 19-238 limits assumed): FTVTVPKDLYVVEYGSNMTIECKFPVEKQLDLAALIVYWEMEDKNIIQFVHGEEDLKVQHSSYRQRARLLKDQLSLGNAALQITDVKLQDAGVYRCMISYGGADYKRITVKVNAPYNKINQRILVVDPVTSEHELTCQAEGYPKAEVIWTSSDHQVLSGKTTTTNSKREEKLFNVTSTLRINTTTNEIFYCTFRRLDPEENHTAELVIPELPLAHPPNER
T2 sequence (Q9NZQ7 19-290): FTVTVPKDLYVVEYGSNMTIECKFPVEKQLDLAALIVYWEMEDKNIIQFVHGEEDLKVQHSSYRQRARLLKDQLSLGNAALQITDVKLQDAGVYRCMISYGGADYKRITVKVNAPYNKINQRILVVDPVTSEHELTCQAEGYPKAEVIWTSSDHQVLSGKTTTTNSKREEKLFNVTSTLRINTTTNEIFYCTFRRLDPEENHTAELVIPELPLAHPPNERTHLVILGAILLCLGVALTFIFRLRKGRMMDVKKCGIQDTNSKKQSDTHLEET
T1 sequence (Q9NZQ7 19-290): as above

Structure (SMILES)	EC50 (PD-1/PD-L1 interaction) [nM]	EC50 [1] [nM]	IC50 (PD-1/PD-L1) [nM]
Cc1c(COc2nc(OCc3cncc(S(C)(=O)=O)c3)c(CNC[C@@H](O)CC(=O)O)cc2Br)cccc1-c1cccc(COc2nc(OCc3cncc(S(C)(=O)=O)c3)c(CNC[C@@H](O)CC(=O)O)cc2Br)c1C [Example 42, (3S,3′S)-4,4′-((((((2,2′-dimethyl-[1,1′-biphenyl]-3,3′-diyl)bis(methylene))bis(oxy))bis(5-bromo-2-((5-(methylsulfonyl)pyridin-3-yl)methoxy)pyridine-6,3 diyl))bis(methylene))bis(azanediyl))bis(3-hydroxybutanoic acid)]	123	149	0.3
COc1nc(OCc2cccc(-c3cccc(COc4ccc(CN[C@@](C)(CO)C(=O)O)c(OC)n4)c3C)c2C)ccc1CN[C@@](C)(CO)C(=O)O [Example 61, (2S,2′S)-2,2′-((((((2,2′-dimethyl-[1,1′-biphenyl]-3,3′-diyl)bis(methylene))bis(oxy))bis(2-methoxypyridine-6,3-diyl))bis(methylene))bis(azanediyl))bis(3-hydroxy-2-methylpropanoic acid)]	6780	200	0.7
Cc1c(COc2cc(OCc3cncc(C#N)c3)c(CNCCO)cc2Cl)cccc1-c1cccc(COc2cc(OCc3cncc(C#N)c3)c(CNCCO)cc2Cl)c1C [Example 68, 5,5′-((((((2,2′-dimethyl-[1,1′-biphenyl]-3,3′-diyl)bis(methylene))bis(oxy))bis(4-chloro-6-(((2-hydroxyethyl)amino)methyl)-3,1-phenylene))bis(oxy))bis(methylene))dinicotinonitrile]	553	279	10.3
Cc1c(-c2ccc(OCCNC[C@@H](O)CC(=O)O)cc2)cccc1-c1cccc(-c2ccc(OCCNC[C@@H](O)CC(=O)O)cc2)c1C [Example 106, (3S,3′S)-4,4′-((((2′,2″-dimethyl-[1,1′:3′,1″:3″,1′″-quaterphenyl]-4,4′″-diyl)bis(oxy))bis(ethane-2,1-diyl))bis(azanediyl))bis(3-hydroxybutanoic acid)]	5270	110	0.4
COc1nc(OCc2cccc(-c3cccc(COc4nc(OC)c(CNC[C@@H](O)CC(=O)O)cc4Br)c3C)c2C)c(Br)cc1CNC[C@@H](O)CC(=O)O [Example 113, (3S,3′S)-4,4′-((((((2,2′-dimethyl-[1,1′-biphenyl]-3,3′-diyl)bis(methylene))bis(oxy))bis(5-bromo-2-methoxypyridine-6,3-diyl))bis(methylene))bis(azanediyl))bis(3-hydroxybutanoic acid)]	193	148	0.6
COc1nc(OCc2cccc(-c3cccc(COc4nc(OC)c(CNC[C@H](O)CC(=O)O)cc4Br)c3C)c2C)c(Br)cc1CNC[C@H](O)CC(=O)O [Example 114, (3R,3′R)-4,4′-((((((2,2′-dimethyl-[1,1′-biphenyl]-3,3′-diyl)bis(methylene))bis(oxy))bis(5-bromo-2-methoxypyridine-6,3-diyl))bis(methylene))bis(azanediyl))bis(3-hydroxybutanoic acid)]	186	140	0.5
Cc1c(COc2nc(OCc3cc(C#N)cc(C#N)c3)c(CNC[C@@H](O)CC(=O)O)cc2Br)cccc1-c1cccc(COc2nc(OCc3cc(C#N)cc(C#N)c3)c(CNC[C@@H](O)CC(=O)O)cc2Br)c1C [Example 121, (3S,3′S)-4,4′-((((((2,2′-dimethyl-[1,1′-biphenyl]-3,3′-diyl)bis(methylene))bis(oxy))bis(5-bromo-2-((3,5-dicyanobenzyl)oxy)pyridine-6,3-diyl))bis(methylene))bis(azanediyl))bis(3-hydroxybutanoic acid)]	74	176	1.4
